Data taken from US4602026A, “Ophthalmic topical agent for remedy of diseases of iris and ciliary body” (Senju Pharmaceutical Co., Ltd., priority 1984, dated 1986).

Experiments:
Rat = test: in vivo
Method: (§1) Acute toxicity test was conducted on rats aged four weeks to which 5-(3-ethoxy-4-pentyloxyphenyl)-2,4-thiazolidinedione was administered.

in vivo = details: rat, in vivo
Method: as §1

mice and rats = test: Acute toxicity test, symptoms and findings common to mice and rats; type: in vivo; details: for life period in the death cases: both animals
Method: as §1
The following symptoms in common with the mice and rats were observed.

[1] = Acute toxicity test, mouse; type: in vivo; details: mouse, in vivo
Mouse = test: Acute toxicity test, mouse; type: in vivo; details: mice
[2] = ip, intraperitoneal injection, female
[3] = ip, intraperitoneal injection, male
[4] = po, oral administration, female
[5] = sc, subcutaneous injection, female
[6] = sc, subcutaneous injection, male

CCCCCOc1ccc(C2SC(=O)NC2=O)cc1OCC (centres unmarked) [5-(3-ethoxy-4-pentyloxyphenyl)-2,4-thiazolidinedione]
Observation on dissection (Rat; rat, in vivo, po): atrophy of the thymus gland was further seen | Observation on dissection, survival cases (Rat; rats, subcutaneous administration, injection area): formed with a cyst of hen's egg size in the injection area, and the cyst was found to contain an extremely small amount of unabsorbed medicament and a small amount of extravasation liquid | LD50 (in vivo; [2]): 520 mg/kg | LD50 (in vivo; [3]): 490 mg/kg | LD50 (in vivo; [4]): 4330 mg/kg | LD50 (in vivo; po, oral administration, male): 5300 mg/kg | LD50 (in vivo; [5]): 3300 mg/kg | LD50 (in vivo; [6]): 3210 mg/kg | General symptoms (mice and rats; in vivo, sc): 3 or 5 hours after the administration, a slight suppression of spontaneous motility was found, and then, lowering in tonus of the abdominal muscle, walking disorder, lacrimation and respiratory depression were observed | life period in the death cases (mice and rats; intraperitoneal administration): 2 to 24 h | Observation on dissection, death cases (mice and rats; mice and rats): congestion of the lung was observed in both mice and rats | life period in the death cases (mice and rats; oral administration, major cases): 2 to 24 h | life period in the death cases (mice and rats; oral administration, minor cases): 48 to 96 h | life period in the death cases (mice and rats; subcutaneous administration): from the night of the administration day to three days after the administration | LD50 [1, 2]: 500 mg/kg | LD50 [1, 3]: 560 mg/kg | LD50 [1, 4]: 2150 mg/kg | LD50 ([1]; po, oral administration, male): 2320 mg/kg | LD50 [1, 5]: 2270 mg/kg | LD50 [1, 6]: 1720 mg/kg | General symptoms, additional in mice (Mouse; intraperitoneal injection): projection of the eyeball, a secretion in the margin of palpebra, fall of the body surface temperature and a slight degree of tremor in a few cases were seen | General symptoms, additional in mice (Mouse; oral administration): lacrimation, a secretion in the margin of palpebra and fall of the body surface temperature were additionally observed | General symptoms, additional in mice (Mouse; subcutaneous injection, next day after administration): projection of the eyeball, a secretion in the margin of palpebra and fall of the body surface temperature were additionally seen
